Laboratory results taken from patent US5312919A, “Photooxidation products and derivatives thereof of merocyanine-540, their preparation and uses” (priority 1992, dated 1994).
Like-named read-outs stand apart in the source and are kept apart here.

How the values were obtained:
[1] = tested on: JEG-3 (choriocarcinoma, human); test: Inhibition of cell proliferation, JEG-3 (MTT assay); type: cell-based; conditions: for inhibition at 1.56 µg/mL / inhibition at 3.13 µg/mL / inhibition at 6.25 µg/mL / inhibition at 12.5 µg/mL: read-out: % inhibition of cell proliferation
Method: (§1) Preactivated MC 540 is abbreviated as pMC 540. […] 52: 831-38 (1990); and T. Mosmann, J. Immulog. Methods 65: 55-63 (1983).
(§2) Each cell type (1×10^6 cells/ml; in triplicate) was treated with indicated concentrations of merocil or merodantoin. After overnight (20 hr.) or 5 day incubation periods, the cell viability was determined by MTT assay and calculated as a percentage of untreated controls. The toxicity in vehicle only (cremophor EL) controls was not detectable at highest dose tested.

MT-4 cells = test: Effect on viability of MT-4 cells; type: cell-based; conditions: experimental conditions of Table 8
Method: (§3) Cell free human immunodeficiency virus (HIV-1) was either left untreated or treated with indicated doses of Merocil or Merodantoin for one hour at 37° C. and added to MT-4 target cells. After 4 hour incubation at 37° C., the cells were washed three times and further incubated in drug free fresh growth medium (complete RPMI-1640) at 37° C. for 4 days. On day four, 50% of the culture supernatant was replaced with fresh growth medium to prevent cell death due to possible nutrient depletion. The viability of the cell was determined on day 11 by MTT assay. […] The viability of the MT-4 cells was not affected by Merocil or Merodantoin under the experimental conditions described above.

[2] = tested on: H.S. Sultan (multiple myeloma); test: Inhibition of cell proliferation, H.S. Sultan (MTT assay); type: cell-based; conditions: 24 hr.
Method: as §1
(§4) Each cell type (1×10^6 cells/ml; in triplicate) was treated with indicated concentrations of merocil or merodantoin. […] The cytotoxicity in vehicle only (cremophor EL) controls was not detectable at highest dose tested.

certain tumor cells = test: Inhibition of proliferation of tumor cells (overall conclusion); type: cell-based
Source text: as §1

U266B1 (myeloma) = test: Inhibition of cell proliferation, U266B1 (MTT assay); type: cell-based; conditions: 24 hr.
Method: as §1, §4

8226 (multiple myeloma) = test: Inhibition of cell proliferation, 8226 (MTT assay); type: cell-based; conditions: 24 hr.
Method: as §1, §4

[3] = tested on: MS 751 (cervix, carcinoma, human); test: Inhibition of cell proliferation, MS 751 (MTT assay); type: cell-based; conditions: for inhibition at 1.56 µg/mL / inhibition at 3.13 µg/mL / inhibition at 6.25 µg/mL / inhibition at 12.5 µg/mL: read-out: % inhibition of cell proliferation
Method: as §1, §2

[4] = tested on: human immunodeficiency virus (HIV-1); test: Inactivation of cell free human immunodeficiency virus (viability of MT-4 target cells, MTT assay); type: cell-based
Method: as §1, §3

[5] = tested on: DU 145 (prostate, carcinoma, human); test: Inhibition of cell proliferation, DU 145 (MTT assay); type: cell-based; conditions: for inhibition at 1.56 µg/mL / inhibition at 3.13 µg/mL / inhibition at 6.25 µg/mL / inhibition at 12.5 µg/mL: read-out: % inhibition of cell proliferation
Method: as §1, §2

[6] = tested on: L1210 mouse leukemia cells; test: Combined effect on L1210 mouse leukemia cells (MTT assay); conditions: MC = 12.5 μg/ml; MD = 25 μg/ml; MZ = 25 μg/ml; overnight
Method: The biological activities of the photooxidation products of MC 540 were determined. Preactivated MC 540 is abbreviated as pMC 540. Assays of antitumor activities of the products were carried out according to published standard methods.
Mouse leukemia L1210 cells (1 × 10^6 cells/ml) were treated wit
different combinations of the indicated compounds (isolated from
preactivated merocyanine 540). After overnight incubation the cell kill
was determined by MTT assay.

[7] = Cytotoxicity on normal human peripheral blood mononuclear cells (trypan blue dye exclusion); type: cell-based; conditions: human, peripheral blood mononuclear cells, overnight, 37° C., read-out: % cell kill (mean ± S.E.M.)
Method: (§5) Preactivated MC 540 is abbreviated as pMC 540.
(§6) Merocil and Merodantoin were dissolved in cremophor EL whereas pMC 540 was prepared in 10% aqueous ethanol. […] Fresh human peripheral mononucleas cells (1×10^6 cells/ml) were treated with indicated concentration of compounds. After overnight incubation at 37° C., cell viability was determined by trypan blue dye exclusion method.

[8] = tested on: normal human peripheral blood mononuclear cells; test: as above; type: cell-based; conditions: doses of Table 1
Method: as §5, §6

[9] = tested on: C-33A (carcinoma cervix, human); test: Inhibition of cell proliferation, C-33A (MTT assay); type: cell-based; conditions: for inhibition at 1.56 µg/mL: 1.56 μg/ml; for inhibition at 1.56 µg/mL / inhibition at 3.13 µg/mL / inhibition at 6.25 µg/mL / inhibition at 12.5 µg/mL: read-out: % inhibition of cell proliferation; for inhibition at 3.13 µg/mL: 3.13 μg/ml; for inhibition at 6.25 µg/mL: 6.25 μg/ml; for inhibition at 12.5 µg/mL: 12.5 μg/ml; for inhibition at 25 µg/mL: 25.0 μg/ml
Method: as §1, §2

[10] = tested on: BT-20 (breast, adenocarcinoma); test: Inhibition of cell proliferation, BT-20 (MTT assay); type: cell-based; conditions: Homo sapiens; for inhibition at 1.56 µg/mL: 1.56 μg/ml; for inhibition at 1.56 µg/mL / inhibition at 3.13 µg/mL / inhibition at 6.25 µg/mL / inhibition at 12.5 µg/mL: read-out: % inhibition of cell proliferation; for inhibition at 3.13 µg/mL: 3.13 μg/ml; for inhibition at 6.25 µg/mL: 6.25 μg/ml; for inhibition at 12.5 µg/mL: 12.5 μg/ml; for inhibition at 25 µg/mL: 25.0 μg/ml
Source text: Preactivated MC 540 is abbreviated as pMC 540. […] 52: 831-38 (1990); and T. Mosmann, J. Immulog. Methods 65: 55-63 (1983). […]

[11] = 1.56 μg/ml, read-out: % inhibition of cell proliferation
[12] = 3.13 μg/ml, read-out: % inhibition of cell proliferation
[13] = 6.25 μg/ml, read-out: % inhibition of cell proliferation
[14] = 12.5 μg/ml, read-out: % inhibition of cell proliferation

## CCCCN1C(=O)C(=O)N(CCCC)C1=S [Merodantoin, N,N'-Dibutyl-2-thio-4,5-imidazolindion]
[1]; JEG-3, 1.56 μg/ml, 20 hr.
  inhibition at 1.56 µg/mL: 15%
[1]; JEG-3, 3.13 μg/ml, 20 hr.
  inhibition at 3.13 µg/mL: 53%
[1]; JEG-3, 6.25 μg/ml, 20 hr.
  inhibition at 6.25 µg/mL: 88%
[1]; JEG-3, 12.5 μg/ml, 20 hr.
  inhibition at 12.5 µg/mL: 100%
[1]; JEG-3, 25.0 μg/ml, 20 hr.
  inhibition at 25 µg/mL: 100%
[1]; JEG-3, 120 h, 1.56 μg/ml, 5 days
  inhibition at 1.56 µg/mL: 18%
[1]; JEG-3, 120 h, 3.13 μg/ml, 5 days
  inhibition at 3.13 µg/mL: 38%
[1]; JEG-3, 120 h, 6.25 μg/ml, 5 days
  inhibition at 6.25 µg/mL: 91%
[1]; JEG-3, 120 h, 12.5 μg/ml, 5 days
  inhibition at 12.5 µg/mL: 100%
[1]; JEG-3, 120 h, 25.0 μg/ml, 5 days
  inhibition at 25 µg/mL: 100%
MT-4 cells
  viability of the MT-4 cells: not affected
[2]; [11]
  inhibition at 1.56 µg/mL: 18%
[2]; [12]
  inhibition at 3.13 µg/mL: 34%
[2]; [13]
  inhibition at 6.25 µg/mL: 54%
[2]; [14]
  inhibition at 12.5 µg/mL: 77%
[2]; 25.0 μg/ml
  inhibition at 25 µg/mL: 87%
Certain tumor cells
  inhibiting the proliferation of certain tumor cells: effective
U266B1 (myeloma); [11]
  inhibition at 1.56 µg/mL: 8%
U266B1 (myeloma); [12]
  inhibition at 3.13 µg/mL: 10%
U266B1 (myeloma); [13]
  inhibition at 6.25 µg/mL: 10%
U266B1 (myeloma); [14]
  inhibition at 12.5 µg/mL: 12%
U266B1 (myeloma); 25.0 μg/ml
  inhibition at 25 µg/mL: 12%
8226 (multiple myeloma); [11]
  inhibition at 1.56 µg/mL: 20%
8226 (multiple myeloma); [12]
  inhibition at 3.13 µg/mL: 16%
8226 (multiple myeloma); [13]
  inhibition at 6.25 µg/mL: 20%
8226 (multiple myeloma); [14]
  inhibition at 12.5 µg/mL: 30%
8226 (multiple myeloma); 25.0 μg/ml
  inhibition at 25 µg/mL: 46%
[3]; MS751, 1.56 μg/ml, 20 hr.
  inhibition at 1.56 µg/mL: 8%
[3]; MS751, 3.13 μg/ml, 20 hr.
  inhibition at 3.13 µg/mL: 24%
[3]; MS751, 6.25 μg/ml, 20 hr.
  inhibition at 6.25 µg/mL: 20%
[3]; MS751, 12.5 μg/ml, 20 hr.
  inhibition at 12.5 µg/mL: 28%
[3]; MS751, 25.0 μg/ml, 20 hr.
  inhibition at 25 µg/mL: 41%
[3]; MS751, 120 h, 1.56 μg/ml, 5 days
  inhibition at 1.56 µg/mL: 11%
[3]; MS751, 120 h, 3.13 μg/ml, 5 days
  inhibition at 3.13 µg/mL: 23%
[3]; MS751, 120 h, 6.25 μg/ml, 5 days
  inhibition at 6.25 µg/mL: 66%
[3]; MS751, 120 h, 12.5 μg/ml, 5 days
  inhibition at 12.5 µg/mL: 90%
[3]; MS751, 120 h, 25.0 μg/ml, 5 days
  inhibition at 25 µg/mL: 100%
[4]; 75 μg/ml dose
  inactivation of cell free HIV: virtually complete inactivation of the virus
[4]; Human immunodeficiency virus 1, MT4, 264 h, MT-4 cells + HIV treated with 25 μg/ml, one hour 37° C., day 11, untreated HIV-1 36.75
  viability at 25 µg/mL: 73.5%
[4]; Human immunodeficiency virus 1, MT4, 264 h, MT-4 cells + HIV treated with 50 μg/ml, one hour 37° C., day 11, untreated HIV-1 36.75
  viability at 50 µg/mL: 94.3%
[4]; Human immunodeficiency virus 1, MT4, 264 h, MT-4 cells + HIV treated with 75 μg/ml, one hour 37° C., day 11, untreated HIV-1 36.75
  viability at 75 µg/mL: 102%
[4]; conclusion
  inactivating human immunodeficiency virus (HIV-1): effective
[5]; DU-145, 1.56 μg/ml, 20 hr.
  inhibition at 1.56 µg/mL: 0%
[5]; DU-145, 3.13 μg/ml, 20 hr.
  inhibition at 3.13 µg/mL: 1%
[5]; DU-145, 6.25 μg/ml, 20 hr.
  inhibition at 6.25 µg/mL: 8%
[5]; DU-145, 12.5 μg/ml, 20 hr.
  inhibition at 12.5 µg/mL: 9%
[5]; DU-145, 25.0 μg/ml, 20 hr.
  inhibition at 25 µg/mL: 11%
[5]; DU-145, 120 h, 1.56 μg/ml, 5 days
  inhibition at 1.56 µg/mL: 54%
[5]; DU-145, 120 h, 3.13 μg/ml, 5 days
  inhibition at 3.13 µg/mL: 85%
[5]; DU-145, 120 h, 6.25 μg/ml, 5 days
  inhibition at 6.25 µg/mL: 99%
[5]; DU-145, 120 h, 12.5 μg/ml, 5 days
  inhibition at 12.5 µg/mL: 100%
[5]; DU-145, 120 h, 25.0 μg/ml, 5 days
  inhibition at 25 µg/mL: 100%
[6]
  % Cell Kill: 64%
[7]; 1.56 μg/ml
  cytotoxicity: 4.33 ± 1.07%
[7]; 3.13 μg/ml
  cytotoxicity: 3.67 ± 0.51%
[7]; 6.25 μg/ml
  cytotoxicity: 5.33 ± 0.84%
[7]; 12.5 μg/ml
  cytotoxicity: 11.3 ± 1.83%
[7]; 25.0 μg/ml
  cytotoxicity: 25.7 ± 0.51%
[8]
  toxicity to normal human peripheral blood mononuclear cells: relatively non-toxic
[9]; 20 hr.
  inhibition at 1.56 µg/mL: 16%
  inhibition at 3.13 µg/mL: 29%
  inhibition at 6.25 µg/mL: 36%
  inhibition at 12.5 µg/mL: 49%
  inhibition at 25 µg/mL: 56%
[9]; 120 h, 5 days
  inhibition at 1.56 µg/mL: 11%
  inhibition at 3.13 µg/mL: 34%
  inhibition at 6.25 µg/mL: 86%
  inhibition at 12.5 µg/mL: 63%
  inhibition at 25 µg/mL: 91%
[10]; BT-20, 96 h, 4 days
  inhibition at 1.56 µg/mL: 19%
  inhibition at 3.13 µg/mL: 52%
  inhibition at 6.25 µg/mL: 20%
  inhibition at 12.5 µg/mL: 12%
  inhibition at 25 µg/mL: 73%
[10]; BT-20, 48 hr.
  inhibition at 1.56 µg/mL: 0%
  inhibition at 3.13 µg/mL: 0%
  inhibition at 6.25 µg/mL: 0%
  inhibition at 12.5 µg/mL: 8%
  inhibition at 25 µg/mL: 26%
